Source: the supplement of paper PMC11061612

How the values were obtained:
Experiment in all cases: Bliss excess, mean over the matrix (fraction); higher = more synergy
[1] = tested on: ALL-PO (B-Lymphoblastic Leukemia)
Summary of the method: (§1)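 Cell lines grown in DMEM/F12 or RPMI with 10% FBS were plated in 1536-well plates and held 24 hours at 37°C, 5% CO2 before 72 hours of exposure to two-drug dose matrices, with DMSO typically at 0.2%. CellTiter-Glo 2.0 luminescence gave viability, which was converted to inhibition. Vehicle wells were set to 0 and blank wells to 1. Combination Emax is the second-highest inhibition in the matrix, and Bliss excess is the observed combination effect minus the expected EA + EB − EA·EB, where EA and EB are the single-agent effects.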

[2] = tested on: BFTC-909 (Kidney Carcinoma)
Summary of the method: as §1

BPH-1 (Non-Cancerous) = tested on: BPH-1 (Non-Cancerous)
Summary of the method: as §1

[3] = tested on: HH (T-Cell Non-Hodgkin's Lymphoma)
Summary of the method: as §1

[4] = tested on: KYAE-1 (Esophageal Adenocarcinoma)
Summary of the method: as §1

[5] = tested on: NCI-H1568 (Lung Adenocarcinoma)
Summary of the method: as §1

[6] = tested on: NCI-H209 (Small Cell Lung Carcinoma)
Summary of the method: as §1

NCI-H2722 (Mesothelioma) = tested on: NCI-H2722 (Mesothelioma)
Summary of the method: as §1

[7] = tested on: SNU-449 (Hepatocellular Carcinoma)
Summary of the method: as §1

[8] = tested on: YAPC (Pancreatic Carcinoma)
Summary of the method: as §1

| Compound | Bliss excess [1] | Bliss excess [2] | Bliss excess (BPH-1 (Non-Cancerous)) | Bliss excess [3] | Bliss excess [4] | Bliss excess [5] | Bliss excess [6] | Bliss excess (NCI-H2722 (Mesothelioma)) | Bliss excess [7] | Bliss excess [8] |
| --- | --- | --- | --- | --- | --- | --- | --- | --- | --- | --- |
| NC1(C(=O)N[C@@H](CCO)c2ccc(Cl)cc2)CCN(c2ncnc3[nH]ccc23)CC1 [Capivasertib] + COc1nnc2ccc(N3CCC(c4ccc(OCCN5CCN(C)C(=O)[C@H]5C)cc4)CC3)nn12 [AZD5153] (first compound max 10 µM, 7x7, partner max 1 µM) | -0.0116 | 0.0433 | -0.0542 | 0.0022 | 0.0352 | -0.0032 | -0.0007 | 0.0016 | 0.0058 | 0.007 |
| Cc1c2c(nn1C)CSCc1cc(n(C)n1)CSc1cc(c3ccccc3c1)OCCCc1c(C(=O)O)n(C)c3c-2c(Cl)ccc13 [AZD5991] + C=CCn1c(=O)c2cnc(Nc3ccc(N4CCN(C)CC4)cc3)nc2n1-c1cccc(C(C)(C)O)n1 [AZD1775] (first compound max 1 µM, partner max 1 µM) | 0.0023 | 0.0639 | -0.0071 | -0.0046 | -0.0078 | 0.0349 | 0.0103 | -0.016 | 0.0317 | 0.0258 |
| CN(CCO)CC[C@H](CSc1ccccc1)Nc1ccc(S(=O)(=O)NC(=O)c2ccc(N3CCC([C@@H](O)c4ccccc4-c4ccc(Cl)cc4)CC3)cc2)cc1S(=O)(=O)C(F)(F)F [AZD4320] + Cn1cnc2c(F)c(Nc3ccc(Br)cc3Cl)c(C(=O)NOCCO)cc21 [Selumetinib] (first compound max 1 µM, 7x7, partner max 3 µM) | 0.0571 | 0.0212 | 0.0021 | -0.0255 | -0.0146 | -0.0035 | -0.0215 | -0.011 | -0.0537 | 0.0082 |
| CC1(C)CCC(CN2CCN(c3ccc(C(=O)NS(=O)(=O)c4ccc(NCC5CCOCC5)c([N+](=O)[O-])c4)c(Oc4cnc5[nH]ccc5c4)c3)CC2)=C(c2ccc(Cl)cc2)C1 [Venetoclax] + C[C@@H]1COCCN1C2=NC(=NC(=C2)C3(CC3)[S@](=N)(=O)C)C4=C5C=CNC5=NC=C4 [AZD6738] (first compound max 1 µM, 7x7, partner max 10 µM) | 0.0306 | -0.0384 | -0.0336 | -0.0012 | -0.0387 | -0.0156 | 0.127 | -0.0405 | -0.0239 | -0.0303 |
| CC(=O)Nc1cccc(-n2c(=O)n(C3CC3)c(=O)c3c(Nc4ccc(I)cc4F)n(C)c(=O)c(C)c32)c1 [Trametinib] + Cc1nc(-c2cn3c(n2)-c2ccc(-c4cnn(C(C)(C)C(N)=O)c4)cc2OCC3)n(C(C)C)n1 [Taselisib] (first compound max 1 µM, 7x7, partner max 10 µM) | 0.318 | 0.182 | 0.0283 | 0.0868 | 0.0462 | 0.131 | -0.0014 | -0.0078 | -0.0432 | 0.246 |
| CN(CCO)CC[C@H](CSc1ccccc1)Nc1ccc(S(=O)(=O)NC(=O)c2ccc(N3CCC([C@@H](O)c4ccccc4-c4ccc(Cl)cc4)CC3)cc2)cc1S(=O)(=O)C(F)(F)F [AZD4320] + C1CN(CCC1(C(=O)N[C@@H](CCO)C2=CC=C(C=C2)Cl)N)C3=NC=NC4=C3C=CN4 [Capivasertib] (first compound max 1 µM, 7x7, partner max 3 µM) | 0.0177 | -0.0955 | -0.0496 | 0.0193 | -0.031 | -0.0518 | -0.0057 | -0.081 | -0.0742 | -0.0415 |
| Cc1c2c(nn1C)CSCc1cc(n(C)n1)CSc1cc(c3ccccc3c1)OCCCc1c(C(=O)O)n(C)c3c-2c(Cl)ccc13 [AZD5991] + C[C@@H]1COCCN1C2=NC(=NC(=C2)C3(CC3)[S@](=N)(=O)C)C4=C5C=CNC5=NC=C4 [AZD6738] (first compound max 1 µM, 7x7, partner max 10 µM) | 0.0236 | 0.0508 | 0.0039 | 0.0317 | 0.0054 | 0.0409 | 0.138 | 0.0224 | 0.0175 | 0.0715 |
| COc1nnc2ccc(N3CCC(c4ccc(OCCN5CCN(C)C(=O)[C@H]5C)cc4)CC3)nn12 [AZD5153] + Cn1cnc2c(F)c(Nc3ccc(Br)cc3Cl)c(C(=O)NOCCO)cc21 [Selumetinib] (first compound max 1 µM, 7x7, partner max 10 µM) | -0.0054 | -0.0399 | -0.0385 | -0.0817 | -0.004 | -0.0099 | -0.0214 | -0.0597 | -0.014 | 0.0121 |
| CN(CCO)CC[C@H](CSc1ccccc1)Nc1ccc(S(=O)(=O)NC(=O)c2ccc(N3CCC([C@@H](O)c4ccccc4-c4ccc(Cl)cc4)CC3)cc2)cc1S(=O)(=O)C(F)(F)F [AZD4320] + C[C@@H](Nc1cc(F)cc(F)c1)c1cc(C(=O)N(C)C)cc2c(=O)cc(N3CCOCC3)oc12 [AZD8186] (first compound max 1 µM, 7x7, partner max 3 µM) | 0.0509 | -0.0011 | -0.0541 | 0.012 | 0.011 | -0.0013 | 0.0529 | -0.0422 | 0.0093 | -0.0258 |
| COc1nnc2ccc(N3CCC(c4ccc(OCCN5CCN(C)C(=O)[C@H]5C)cc4)CC3)nn12 [AZD5153] + C[C@@H]1COCCN1C2=NC(=NC(=C2)C3(CC3)[S@](=N)(=O)C)C4=C5C=CNC5=NC=C4 [AZD6738] (first compound max 1 µM, 7x7, partner max 10 µM) | 0.0106 | -0.0072 | 0.0343 | -0.0324 | -0.003 | -0.0822 | 0.019 | 0.0378 | -0.0048 | 0.0088 |
| Cn1cnc2c(F)c(Nc3ccc(Br)cc3Cl)c(C(=O)NOCCO)cc21 [Selumetinib] + C=CCn1c(=O)c2cnc(Nc3ccc(N4CCN(C)CC4)cc3)nc2n1-c1cccc(C(C)(C)O)n1 [AZD1775] (first compound max 10 µM, partner max 1 µM) | 0.0229 | -0.0047 | 0.0209 | -0.0605 | -0.0019 | -0.0331 | -0.0211 | -0.046 | -0.0413 | 0.016 |
| CC1(C)CCC(CN2CCN(c3ccc(C(=O)NS(=O)(=O)c4ccc(NCC5CCOCC5)c([N+](=O)[O-])c4)c(Oc4cnc5[nH]ccc5c4)c3)CC2)=C(c2ccc(Cl)cc2)C1 [Venetoclax] + Cn1cnc2c(F)c(Nc3ccc(Br)cc3Cl)c(C(=O)NOCCO)cc21 [Selumetinib] (first compound max 1 µM, 7x7, partner max 3 µM) | 0.0801 | -0.0315 | 0.0055 | -0.0387 | -0.028 | -0.0681 | 0.0379 | -0.0741 | -0.0609 | -0.0474 |
| CC1(C)CCC(CN2CCN(c3ccc(C(=O)NS(=O)(=O)c4ccc(NCC5CCOCC5)c([N+](=O)[O-])c4)c(Oc4cnc5[nH]ccc5c4)c3)CC2)=C(c2ccc(Cl)cc2)C1 [Venetoclax] + C=CCn1c(=O)c2cnc(Nc3ccc(N4CCN(C)CC4)cc3)nc2n1-c1cccc(C(C)(C)O)n1 [AZD1775] (first compound max 1 µM, partner max 1 µM) | 0.136 | -0.0556 | -0.0548 | 0.029 | -0.033 | -0.0385 | 0.107 | -0.0631 | -0.0353 | -0.0356 |
| CC1(C)CCC(CN2CCN(c3ccc(C(=O)NS(=O)(=O)c4ccc(NCC5CCOCC5)c([N+](=O)[O-])c4)c(Oc4cnc5[nH]ccc5c4)c3)CC2)=C(c2ccc(Cl)cc2)C1 [Venetoclax] + C[C@@H](Nc1cc(F)cc(F)c1)c1cc(C(=O)N(C)C)cc2c(=O)cc(N3CCOCC3)oc12 [AZD8186] (first compound max 1 µM, 7x7, partner max 3 µM) | 0.202 | 0.0073 | -0.0385 | 0.0221 | -0.0358 | -0.0408 | 0.1 | -0.0546 | -0.0583 | -0.048 |
| COc1nnc2ccc(N3CCC(c4ccc(OCCN5CCN(C)C(=O)[C@H]5C)cc4)CC3)nn12 [AZD5153] + C=CCn1c(=O)c2cnc(Nc3ccc(N4CCN(C)CC4)cc3)nc2n1-c1cccc(C(C)(C)O)n1 [AZD1775] (first compound max 1 µM, partner max 1 µM) | -0.0198 | -0.0723 | 0.0246 | -0.0442 | -0.0142 | -0.102 | 0.0223 | 0.0139 | -0.0033 | -0.0403 |
| NC1(C(=O)N[C@@H](CCO)c2ccc(Cl)cc2)CCN(c2ncnc3[nH]ccc23)CC1 [Capivasertib] + CC(C)n1c(=O)n(C)c2cnc3cc(F)c(-c4ccc(OCCCN5CCCCC5)nc4)cc3c21 [AZD1390] (first compound max 10 µM, 7x7, partner max 0.3 µM) | -0.0382 | -0.013 | -0.0842 | -0.0327 | -0.0081 | -0.0852 | -0.037 | -0.0512 | -0.038 | -0.0105 |
| NC1(C(=O)N[C@@H](CCO)c2ccc(Cl)cc2)CCN(c2ncnc3[nH]ccc23)CC1 [Capivasertib] + Cn1cnc2c(F)c(Nc3ccc(Br)cc3Cl)c(C(=O)NOCCO)cc21 [Selumetinib] (first compound max 10 µM, 7x7, partner max 10 µM) | 0.117 | 0.0531 | -0.0162 | -0.0626 | -0.0064 | -0.055 | -0.0108 | 0.0009 | -0.0113 | 0.03 |
| COc1nnc2ccc(N3CCC(c4ccc(OCCN5CCN(C)C(=O)[C@H]5C)cc4)CC3)nn12 [AZD5153] + CCN(CCO)CCCOc1ccc2c(Nc3cc(CC(=O)Nc4cccc(F)c4)[nH]n3)ncnc2c1 [AZD2811] (first compound max 1 µM, 7x7, partner max 1 µM) | -0.0134 | 0.0272 | -0.0252 | 0.0055 | -0.0092 | -0.064 | -0.0145 | -0.0263 | -0.0179 | -0.0203 |
| NC1(C(=O)N[C@@H](CCO)c2ccc(Cl)cc2)CCN(c2ncnc3[nH]ccc23)CC1 [Capivasertib] + CC(=O)c1c(C)c2cnc(Nc3ccc(N4CCNCC4)cn3)nc2n(C2CCCC2)c1=O [Palbociclib] (first compound max 10 µM, 7x7, partner max 10 µM) | -0.0252 | 0.006 | -0.0574 | -0.0305 | -0.0168 | -0.124 | -0.0433 | -0.0436 | 0.001 | 0.0043 |
